System: patients with treatment-resistant depression (TRD)
Experiment: MADRS total score, phase 2 doubly-randomized dose-response study in TRD (NCT01998958)
Type: in vivo, human
Details: for MADRS total score, Mean difference placebo: Period 1 and Period 2 Combined; for MADRS total score: LS mean difference vs placebo, range over esketamine dose groups / Proportion of responders (≥50% improvement in MADRS total score) / Remission (MADRS total score ≤10) / MADRS total score: treatment difference relative to placebo: phase 2; for MADRS total score: LS mean difference vs placebo, range over esketamine dose groups: 28, 56, 84 mg; for Proportion of responders (≥50% improvement in MADRS total score): Period 2 endpoint; for Remission (MADRS total score ≤10): after 2 weeks; for MADRS total score: treatment difference relative to placebo: day 15
Description: In Panel A, reported here, 14 study sites (13 in US, 1 in Belgium) enrolled participants into the study. The study consisted of four phases: 1) screening, 2) double-blind treatment (days 1 to 15), comprised of two 1-week periods (Period 1, Period 2), 3) optional open-label treatment (days 15 to 74) with tapering of intranasal dosing frequency, and 4) post-treatment follow-up (8 weeks). Based on prior studies of ketamine where efficacy was reported after 1-2 doses, the duration of each period in the double-blind phase was 1 week, during which time it was expected that efficacy could be achieved. This design allowed evaluation of the dose(s) needed to proceed to evaluation in phase 3. The purpose of the open-label flexible-dose phase was to evaluate the impact of less frequent dosing on sustaining efficacy.
At the beginning of double-blind Period 1, eligible participants were randomized (3:1:1:1) to intranasal placebo or esketamine 28, 56, or 84 mg, twice weekly (days 1 and 4) based on the first of two computer-generated randomization schedules (Period 1 and Period 2). Randomization was balanced by using randomly permuted blocks and stratified by study center. At the end of Period 1, those randomized to placebo who had moderate-to-severe symptoms (assessed by Quick Inventory of Depressive Symptomatology-Self Report (Trivedi 2016 and Rush, “The 16-item Quick Inventory of Depressive Symptomatology (QIDS) Clinician Rating (QIDS-C) and Self-Report (QIDS-SR): A psychometric evaluation in patients with chronic major depression”, Biol. Psychiatry, 2003, 54(5):573-583) [QIDS-SR16] total score: moderate, 11-16; severe, >16) were re-randomized (1:1:1:1) to intranasal esketamine 28, 56, or 84 mg or placebo, twice weekly (days 8 and 11), while those having mild or no symptoms continued on placebo. To maintain the blind, all participants completed an identical process prior to entry into Period 2, whether or not they were re-randomized. Regardless of response in the double-blind phase, all participants were eligible to enter the optional open-label phase. Esketamine (56 mg) was administered on the first day of the open-label phase (study day 15); subsequent doses could be adjusted (range: 28 to 84 mg) based on investigator's clinical judgment, with administration twice weekly for first 2 weeks, weekly for next 3 weeks, then every 2 weeks thereafter.
Efficacy was assessed with the Montgomery-Asberg Depression Rating Scale (MADRS; Montgomery, “A new depression scale designed to be sensitive to change”, Br. J. Psychiatry, 1979, 134:382-389; Williams, “Development and reliability of a structured interview guide for the Montgomery Asberg Depression Rating Scale (SIGMA)”, Br. J. Psychiatry, 2008, 192(1):52-58) on days 1 (pre-dose and 2 hour post-dose), 2, 8 (pre-dose), 9, and 15, using the structured interview guide (SIGMA). See, Williams 2008.
Efficacy data were analyzed in intent-to-treat (ITT) analysis sets for each period and phase. The ITT analysis sets included all participants who received at least 1 dose of study medication during that period or phase and had baseline and at least one post-baseline MADRS total score within that period or phase.
The primary efficacy endpoint—change from baseline (pre-dose, day 1 in each period) to endpoint (day 8 in each period) in MADRS total score—was analyzed using the analysis of covariance (ANCOVA) model. For Period 1, the model included treatment and country as factors, and baseline MADRS total score as covariate. For Period 2, the model included treatment and country as factors, Period 2 baseline QIDS-SR16 score (moderate or severe), and Period 2 baseline MADRS total score as a continuous covariate.
Given the consistency between Periods 1 and 2 results (Chi 2016), esketamine dose groups were compared to placebo using a combined test on the weighted test statistics for each period in the double-blind treatment phase. […]

[1] = OL endpoint-day 74, Esketamine/Esketamine/OL Esketamine
[2] = OL endpoint-day 74, Placebo/Esketamine/OL Esketamine
[3] = OL endpoint-day 74, Placebo/Placebo/OL Esketamine
[4] = Period 1, 2 hours, esketamine 28 mg
[5] = Period 1, 2 hours, esketamine 56 mg
[6] = Period 1, 2 hours, esketamine 84 mg
[7] = Period 1, 24 hours, esketamine 28 mg
[8] = Period 1, 24 hours, esketamine 56 mg
[9] = Period 1, 24 hours, esketamine 84 mg
[10] = Period 1, study period endpoint (day 8), esketamine 28 mg
[11] = Period 1, study period endpoint (day 8), esketamine 56 mg
[12] = Period 1, study period endpoint (day 8), esketamine 84 mg
[13] = Period 2 (placebo nonresponsive participants re-randomized), 2 hours, esketamine 28 mg
[14] = Period 2 (placebo nonresponsive participants re-randomized), 2 hours, esketamine 56 mg
[15] = Period 2 (placebo nonresponsive participants re-randomized), 2 hours, esketamine 84 mg
[16] = Period 2 (placebo nonresponsive participants re-randomized), 24 hours, esketamine 28 mg
[17] = Period 2 (placebo nonresponsive participants re-randomized), 24 hours, esketamine 56 mg
[18] = Period 2 (placebo nonresponsive participants re-randomized), 24 hours, esketamine 84 mg
[19] = Period 2 (placebo nonresponsive participants re-randomized), study period endpoint (day 15), esketamine 28 mg
[20] = Period 2 (placebo nonresponsive participants re-randomized), study period endpoint (day 15), esketamine 56 mg
[21] = Period 2 (placebo nonresponsive participants re-randomized), study period endpoint (day 15), esketamine 84 mg
[22] = Week 8 (Follow-up), Esketamine/Esketamine/OL Esketamine
[23] = Week 8 (Follow-up), Placebo/Esketamine/OL Esketamine
[24] = Week 8 (Follow-up), Placebo/Placebo/OL Esketamine

CN[C@]1(c2ccccc2Cl)CCCCC1=O [esketamine, (S)-2-(2-chlorophenyl)-2-(methylamino)cyclohexanone]
Remission Rate, No, % [1]: 72.2%
Remission Rate, Yes, % [1]: 27.8%
Response Rate, ≥50% improvement, % [1]: 61.1%
Remission Rate, No, % [2]: 60.0%
Remission Rate, Yes, % [2]: 40.0%
Response Rate, ≥50% improvement, % [2]: 50.0%
Remission Rate, No, % [3]: 66.7%
Remission Rate, Yes, % [3]: 33.3%
Response Rate, ≥50% improvement, % [3]: 100%
Remission Rate, No, % (OL endpoint-day 74, Total): 67.6%
Remission Rate, Yes, % (OL endpoint-day 74, Total): 32.4%
Response Rate, ≥50% improvement, % (OL endpoint-day 74, Total): 64.7%
MADRS total score, LS mean change [4]: −16.4
MADRS total score, LS mean difference placebo [4]: −6.7
Remitters, % [4]: (27.3) %
Responders, % [4]: (54.5) %
MADRS total score, LS mean change [5]: −14.3
MADRS total score, LS mean difference placebo [5]: −4.6
Remitters, % [5]: (18.2) %
Responders, % [5]: (36.4) %
MADRS total score, LS mean change [6]: −17.6
MADRS total score, LS mean difference placebo [6]: −7.9
Remitters, % [6]: (25.0) %
Responders, % [6]: (58.3) %
MADRS total score, LS mean change [7]: −14.8
MADRS total score, LS mean difference placebo [7]: −9.1
Remitters, % [7]: (36.4) %
Responders, % [7]: (36.4) %
MADRS total score, LS mean change [8]: −15.7
MADRS total score, LS mean difference placebo [8]: −10.0
Remitters, % [8]: (18.2) %
Responders, % [8]: (27.3) %
MADRS total score, LS mean change [9]: −16.4
MADRS total score, LS mean difference placebo [9]: −10.7
Remitters, % [9]: (25.0) %
Responders, % [9]: (41.7) %
MADRS total score, LS mean change [10]: −9.8
MADRS total score, LS mean difference placebo [10]: −5.0
Remitters, % [10]: (9.1) %
Responders, % [10]: (9.1) %
MADRS total score, LS mean change [11]: −12.4
MADRS total score, LS mean difference placebo [11]: −7.6
Remitters, % [11]: (9.1) %
Responders, % [11]: (18.2) %
MADRS total score, LS mean change [12]: −15.3
MADRS total score, LS mean difference placebo [12]: −10.5
Remitters, % [12]: (25.0) %
Responders, % [12]: (41.7) %
MADRS total score, Mean difference placebo (esketamine 28 mg): −4.2
MADRS total score, Mean difference placebo (esketamine 56 mg): −6.3
MADRS total score, Mean difference placebo (esketamine 84 mg): −9.0
MADRS total score, LS mean change [13]: −10.3
MADRS total score, LS mean difference placebo [13]: −3.5
Remitters, % [13]: (12.5) %
Responders, % [13]: (12.5) %
MADRS total score, LS mean change [14]: −11.7
MADRS total score, LS mean difference placebo [14]: −4.9
Responders, % [14]: (22.2) %
MADRS total score, LS mean change [15]: −11.6
MADRS total score, LS mean difference placebo [15]: −4.9
Remitters, % [15]: (40.0) %
Responders, % [15]: (40.0) %
MADRS total score, LS mean change [16]: −8.9
MADRS total score, LS mean difference placebo [16]: −4.8
MADRS total score, LS mean change [17]: −10.2
MADRS total score, LS mean difference placebo [17]: −6.1
Responders, % [17]: (11.1) %
MADRS total score, LS mean change [18]: −11.6
MADRS total score, LS mean difference placebo [18]: −7.5
Remitters, % [18]: (20.0) %
Responders, % [18]: (40.0) %
MADRS total score, LS mean change [19]: −7.6
MADRS total score, LS mean difference placebo [19]: −3.1
Remitters, % [19]: (12.5) %
Responders, % [19]: (12.5) %
MADRS total score, LS mean change [20]: −8.9
MADRS total score, LS mean difference placebo [20]: −4.4
MADRS total score, LS mean change [21]: −11.4
MADRS total score, LS mean difference placebo [21]: −6.9
Remitters, % [21]: (20.0) %
Responders, % [21]: (20.0) %
Remission Rate, No, % [22]: 54.5%
Remission Rate, Yes, % [22]: 45.5%
Response Rate, ≥50% improvement, % [22]: 68.2%
Remission Rate, No, % [23]: 75.0%
Remission Rate, Yes, % [23]: 25.0%
Response Rate, ≥50% improvement, % [23]: 25.0%
Remission Rate, No, % [24]: 42.9%
Remission Rate, Yes, % [24]: 57.1%
Response Rate, ≥50% improvement, % [24]: 71.4%
Remission Rate, No, % (Week 8 (Follow-up), Total): 58.5%
Remission Rate, Yes, % (Week 8 (Follow-up), Total): 41.5%
Response Rate, ≥50% improvement, % (Week 8 (Follow-up), Total): 56.1%
MADRS total score: LS mean difference vs placebo, range over esketamine dose groups (Period 1 (baseline to day 8)): −5.0 to −10.5
MADRS total score: LS mean difference vs placebo, range over esketamine dose groups (Period 2 (day 8 to day 15)): −3.1 to −6.9
Proportion of responders (≥50% improvement in MADRS total score) (28 mg): 37.5%
Proportion of responders (≥50% improvement in MADRS total score) (56 mg): 36.4%
Proportion of responders (≥50% improvement in MADRS total score) (84 mg): 50.0%
Remission (MADRS total score ≤10) (28 mg): 12.5%
Remission (MADRS total score ≤10) (56 mg): 27.3%
Remission (MADRS total score ≤10) (84 mg): 40.0%
MADRS total score: treatment difference relative to placebo (completers with same treatment 2 weeks, 84 mg): −12.5
MADRS total score: treatment difference relative to placebo (completers, 28 mg): −6.0
MADRS total score: treatment difference relative to placebo (completers, 56 mg): −8.3
